Source: patent US4145540A, “7β-Phosphoramido-7α-methoxycephalosporanic acid derivatives” (Takeda Chemical Industries, Ltd., priority 1975, dated 1979)

Assays:
Experiment in all cases: antibiotic activity (MIC)
Type in all cases: cell-based
S. aureus 209p = conditions: Staphylococcus aureus
From the text: (§1) The antibiotic activity of sodium 7α-methoxy-7β-(2-aminothiazol-4-ylacetamido)-3-(1-methyl-1H-tetrazol-5-ylthiomethyl)-3-cephem-4-carboxylate obtained in the reference experiment is shown as follows.

Serratia TN0024 = tested on: Serratia TN0024
From the text: as §1

S. aureus 1840 = conditions: Staphylococcus aureus
From the text: as §1

E. coli NIHJ = conditions: Escherichia coli
From the text: as §1

[1] = tested on: Serr. marcescens IFO 12648; conditions: Serratia marcescens, IFO12648
From the text: as §1

Ps. aeruginosae PM3 = conditions: Pseudomonas aeruginosa
From the text: as §1

E. coli 0-111 = conditions: Escherichia coli, 0111
From the text: as §1

S. aureus Fs 40204 = conditions: Staphylococcus aureus, FS40204
From the text: as §1

K. pneumoniae GN 3835 = conditions: Klebsiella pneumoniae, GN3835
From the text: as §1

E. coli T-7 = conditions: Escherichia coli, T7
From the text: as §1

P. vulgaris GN 4413 = conditions: Proteus vulgaris, GN4413
From the text: as §1

K. pneumoniae DT = conditions: Klebsiella pneumoniae
From the text: as §1

Question: Which MIC (S. aureus 209p) does the source give for `CO[C@@]1(NC(=O)Cc2csc(N)n2)C(=O)N2C(C(=O)O)=C(CSc3nnnn3C)CS[C@@H]21` [Sodium 7α-methoxy-7β-(2-aminothiazol-4-ylacetamido)-3-(1-methyl-1H-tetrazol-5-ylthiomethyl)-3-cephem-4-carboxylate] here?
Answer: The MIC was 1.56 µg/mL.

Question: And the MIC (Serratia TN0024)?
Answer: The MIC was 6.25 µg/mL.

Question: What about the MIC (S. aureus 1840) of the same compound?
Answer: The MIC was 3.13 µg/mL.

Question: And the MIC (E. coli NIHJ)?
Answer: The MIC was 1.56 µg/mL.

Question: What about the MIC [1] of the same compound?
Answer: The MIC was 6.25 µg/mL.

Question: What about the MIC (Ps. aeruginosae PM3) of the same compound?
Answer: Its MIC is 6.25 µg/mL.

Question: What about the MIC (E. coli 0-111) of the same compound?
Answer: Its MIC is 0.78 µg/mL.

Question: What about the MIC (S. aureus Fs 40204) of the same compound?
Answer: Its MIC is 3.13 µg/mL.

Question: What about the MIC (K. pneumoniae GN 3835) of the same compound?
Answer: The MIC was 1.56 µg/mL.

Question: And the MIC (E. coli T-7)?
Answer: The MIC was 6.25 µg/mL.

Question: And the MIC (P. vulgaris GN 4413)?
Answer: Its MIC is 6.25 µg/mL.

Question: And the MIC (K. pneumoniae DT)?
Answer: Its MIC is 0.78 µg/mL.
